| logP | SMILES |
| --- | --- |
| 3.57 | C#CCOc1cc(OC(=O)N2CCC(F)(F)CC2)c(Cl)cc1Cl |
| 4.22 | CC(C)OC(=O)c1cc(OC(=O)N2CCCC2)c(F)cc1Cl |
| 4.54 | C=COC(=O)C(C)Oc1cc(Oc2ccc(C(F)(F)F)cc2Cl)ccc1[N+](=O)[O-] (stereo unspecified) |
| 3.42 | C#CCOc1cc(OC(=O)N2CCC(F)(F)C2)c(Cl)cc1Cl |
| 3.92 | O=[N+]([O-])c1ccc(Oc2ccccc2)cc1 |
| 4.33 | O=[N+]([O-])c1ccc(Oc2ccc(C(F)(F)F)cc2Cl)cc1Oc1ccoc1 |
| 4.54 | COC(=O)CON=C(C)c1cc(Oc2ccc(C(F)(F)F)cc2Cl)ccc1[N+](=O)[O-] |
| 5.04 | COC(=O)c1cc(Oc2ccc(C(F)(F)F)cc2Cl)ccc1Cl |
| 3.95 | C#CCOc1cc(OC(=O)N(CC)CC)c(Cl)cc1Cl |
| 2.93 | C#CCOC1=Nc2cc(OC(=O)N3CCCC3)c(Cl)cc2OC1 |
| 3.95 | COC(=O)c1cc(OC(=O)N2CCCC2)c(Cl)cc1Cl |
| 2.73 | O=C(Oc1ccccc1)N1CCCC1 |

The next lines start with the compound.

| SMILES | logP |
| --- | --- |
| CCOc1cc(Oc2ccc(C(F)(F)F)cc2Cl)ccc1[N+](=O)[O-] | 4.73 |
| O=C(Oc1cc(O)c(Cl)cc1Cl)N1CCCC1 | 2.98 |
| O=C(Oc1ccc(Cl)cc1Cl)N1CCCC1 | 3.94 |
| O=[N+]([O-])c1ccc(Oc2ccc(C(F)(F)F)cc2Cl)cc1 | 4.54 |
| C#CCOc1cc(OC(=O)N2CCCCC2)c(Cl)cc1Cl | 4.25 |
| COC(=O)c1cc(Sc2ccc(C(F)(F)F)cc2Cl)ccc1[N+](=O)[O-] | 4.76 |
| C#CCOc1cc(OC(=O)N2CCCC2)c(Cl)cc1Cl | 3.82 |
| O=C(O)COC(=O)c1cc(Oc2ccc(C(F)(F)F)cc2Cl)ccc1[N+](=O)[O-] | 4.27 |
| COC(=O)c1cc(S(=O)(=O)c2ccc(C(F)(F)F)cc2Cl)ccc1[N+](=O)[O-] | 3.57 |
| Nc1c([N+](=O)[O-])ccc(Oc2ccccc2)c1Cl | 4.04 |
| COC(=O)c1cc(S(=O)c2ccc(C(F)(F)F)cc2Cl)ccc1[N+](=O)[O-] (stereo unspecified) | 3.65 |
| COC(=O)c1cc(Oc2ccc(C(F)(F)F)cc2Cl)ccc1[N+](=O)[O-] | 4.26 |
| CCOC(=O)C(C)Oc1cc(Oc2ccc(C(F)(F)F)cc2Cl)ccc1[N+](=O)[O-] (stereo unspecified) | 4.53 |
| CC(C)OC(=O)c1cc(OC(=O)N2CCCC2)c(Cl)cc1Cl | 4.67 |
| O=C(Oc1ccccc1Cl)N1CCCC1 | 3.13 |
| CCOC(=O)C(C)OC(=O)c1cc(Oc2ccc(C(F)(F)F)cc2Cl)ccc1[N+](=O)[O-] (stereo unspecified) | 4.81 |
| O=C(Oc1ccc(Cl)cc1)N1CCCC1 | 3.38 |
| COC(=O)c1cc(Oc2cc(C(F)(F)F)ccc2Cl)ccc1[N+](=O)[O-] | 4.21 |
| Cc1cccc(Oc2ccc([N+](=O)[O-])cc2)c1 | 4.4 |

Source: the OPERA property sets (Mansouri et al. 2018)
